The record followed here is US12692532B2, “Compounds and methods for amine oxidase imaging” (ETH ZURICH, priority 2019, dated 2026).

Data set [1] relates to amine-oxidase (LOX) in skin wound. The data set can be described thus: In vivo intradermal administration to mice, histological analysis of skin wound. The note with it: for fluorescence in cross section of wound after in vivo administration: 100 μM, 50 μL intradermally, skin harvested after five days. As to the method:
Animals: Mice were housed and fed according to Swiss guidelines and all animal experiments were approved by the local veterinary authorities (Kantonales Veterinäramt Zürich). All mice used for these experiments are on a C57BL/6 background. Administration of Compounds 3, 4 and 5 into skin: Peptide solutions at 100 μM were brought to room temperature for 30 min. Male or female mice at 8 weeks of age were anesthetized by intraperitoneal injection of ketamine/xylazine (100 mg ketamine/5-10 mg xylazine per kg body weight), skin shaved and an injection of 50 μL was made intradermally into the back skin. Mice were housed for an additional five days and then skin harvested for histological analysis.
Skin tissue used for histology was harvested and immediately embedded and frozen in tissue freezing Medium® (Leica Biosystems, Wetzlar, Germany). Tissue sections (7 μM) were fixed using ice-cold acetone for 10 min at −20° C. and stained with propidium iodide to visualize nuclei. Images were taken using a 20× objective. For immunofluorescent analysis of collagen, antibodies against collagen I (Southern Biotech, Birmingham, AL, USA; 1310-01) or collagen III (Abcam, Cambridge, UK, ab7778) were used. Fixed tissue sections were incubated with 1% bovine serum albumin (BSA) in PBS for 30 min followed by collagen I (1:400 dilution in 1% BSA) or collagen III (1:800 dilution in 1% BSA) antibodies for 60 min at room temperature. After washing (3×5 min PBS), secondary antibodies (anti-rabbit AF488 (711-547-003) or anti-goat AF488 (705-545-147), Jackson ImmunoResearch) were incubated on the tissues for 30 min at room temperature (both at 1:400 dilution in 1% BSA) and nuclei visualized using propidium iodide. All images were taken using a 20× objective.

Another data set concerns SSC13 ear tumor. The data set can be described thus: Staining of SSC13 ear tumor tissue sections. The note with it: 100 μM in PBS, 4 hours at 37° C. Here is the method:
Skin tissue used for histology was harvested and immediately embedded and frozen in tissue freezing Medium® (Leica Biosystems, Wetzlar, Germany). Tissue sections (7 uM) were treated by the addition of 50 μL of each compound at 100 μM in PBS (Compounds 3, 4, 5, or 6) by pipette to completely cover the surface of the section, incubated at 37° C. for 4 hours in the dark, and washed 2× with PBS. Sections were fixed using ice-cold acetone for 10 min at −20° C. and stained with propidium iodide to visualize nuclei. Images were taken using a 20× objective.
For immunofluorescent analysis of collagen, antibodies against collagen I (Southern Biotech, 1310-01) or collagen III (Abcam, ab7778) were used. Fixed tissue sections were incubated with collagen I or collagen III antibodies for 60 min at room temperature. After washing, secondary antibodies (anti-rabbit AF488 (711-547-003) or anti-goat AF488 (705-545-147), Jackson ImmunoResearch) were incubated on the tissues for 30 min at room temperature and nuclei visualized using propidium iodide. All images were taken using a 20× objective.

Data set [2] deals with LOX activity in mouse tissue homogenate. The data set can be described thus: Ex vivo fluorescence assay of amine oxidase (LOX) activity in mouse tissue homogenate. In kind it is biochemical. To be noted: for fluorescent signal (RFU) with skin homogenate, comparison with oLOX probe: 10 μM, 24 h at 37° C., each at its absorbance and emission maximum. Here is the method: (§1) Fluorescence experiments for determining amine oxidase activity of a given enzyme are conducted using a fluorescence plate reader and a standard 96-well black polystyrene plate with a clear flat bottom. To the plate 150 μL of the following solutions are added to individual wells, e.g. with at least three replicates: buffer (e.g. 25 mM at pH 7.5), a solution in buffer of the amine-oxidase reactive probe, e.g. Compound 2, (e.g. at 100 μM), a buffered solution of the sample containing an amine-oxidase at the desired concentration(s) (e.g. 40 μg/mL), and a buffered solution of the sample containing amine-oxidases with addition of the probe, e.g. Compound 2, (e.g. at 100 μM). The plate is incubated in the dark at 37° C. for a period of time between 15 min and 24 hours before measurements are taken. Fluorescence is measured by exciting the unmasked probe at the absorbance maximum (e.g. 360 nm) or at 405 nm, and measuring the fluorescence at the emission maximum of the probe, for example at 460 nm. Enzyme activity is observed as fluorescence measured relative to the untreated controls, for example as expressed in relative fluorescent units (RFUs). […] Any change, optionally any statistically relevant change, in fluorescence relative to the untreated controls is indicative of amine oxidase activity.
Skin tissue used for enzymatic analysis of LOX activity was harvested (1 cm×1 cm) and placed in 2 ml of ice-cold PBS. Skin tissue was homogenized using an Ultra-TURRAX homogenizer (KA®-Werke GmbH & CO. KG, Staufen, Germany) and samples were spun at 2000×g to pellet out tissue debris. The supernatant was further purified using a 0.2 μm filter. Tissue homogenates were then evaluated with regard to total in solution protein retrieval using a nanospec absorbance measurement standardized to BSA at 1 mg/mL (Pierce™, Thermo Fisher Scientific Inc, Waltham, USA). Homogenates were diluted to appropriate concentrations (e.g. 1 mg/ml total protein) with 25 mM PIPES, 0.5% Triton X-100 (Sigma Aldrich, St Louis, […], USA) and pre-incubated with the probe (10 μM or 100 μM) at 37° C. in the dark for the designated period of time prior to fluorescence measurements. The resultant fluorescence was then measured using a Tecan Spark 10M Multi-Mode Microplate Reader (Tecan, Männedorf, Switzerland) at ambient temperature with a filter for excitation/emission (e.g. 405/460 nm respectively) as defined for the experiment. Activity is observed as fluorescence measured, and is expressed in relative fluorescent units (RFUs). Graphical presentation and statistical analysis were carried out using Graphpad Prism 7 software, (GraphPad Software, Inc., San Diego, USA.) with statistical significance determined as p<0.05.

Data set [3] can be described thus: Absorption and emission spectroscopy, quantum yield. The note with it: excitation wavelength used for the emission scans of FIG. 2. In kind it is physicochemical.
Procedure: Absorption and emission spectroscopy. UV-visible spectra were obtained with a Cary-500 Scan spectrophotometer. The spectra were measured in quartz cuvettes (ThorLabs, CV10Q3500, Newton, NJ USA). Samples were irradiated with an LED transilluminator (Roithner Lasertechnik, LED405-06V, Vienna, Austria) emitting at a wavelength as stated with an incident intensity of ca. 2 mW cm^−2, measured with a power-meter (ThorLabs, PM100D, Newton, NJ USA) equipped with a Si photodiode detector (ThorLabs, S120VC, Newton, NJ USA). Fluorescence spectroscopy was measured in a Fluorolog 3 fluorimeter (Horiba Jobin-Yvon, Germany) fluorimeter with a cuvette sample changer for quartz cuvettes (ThorLabs, CV10Q3500F-E, Newton, NJ USA). All measurements were conducted at 25° C. in 50 mM PBS pH 7.4 buffer solution under red light for ambient illumination to avoid photoactivation.
Data set [4] deals with T1, recombinant human monoamine oxidase B (MAO-B) (Homo sapiens, UniProt P27338).
T1 sequence (P27338 1-520): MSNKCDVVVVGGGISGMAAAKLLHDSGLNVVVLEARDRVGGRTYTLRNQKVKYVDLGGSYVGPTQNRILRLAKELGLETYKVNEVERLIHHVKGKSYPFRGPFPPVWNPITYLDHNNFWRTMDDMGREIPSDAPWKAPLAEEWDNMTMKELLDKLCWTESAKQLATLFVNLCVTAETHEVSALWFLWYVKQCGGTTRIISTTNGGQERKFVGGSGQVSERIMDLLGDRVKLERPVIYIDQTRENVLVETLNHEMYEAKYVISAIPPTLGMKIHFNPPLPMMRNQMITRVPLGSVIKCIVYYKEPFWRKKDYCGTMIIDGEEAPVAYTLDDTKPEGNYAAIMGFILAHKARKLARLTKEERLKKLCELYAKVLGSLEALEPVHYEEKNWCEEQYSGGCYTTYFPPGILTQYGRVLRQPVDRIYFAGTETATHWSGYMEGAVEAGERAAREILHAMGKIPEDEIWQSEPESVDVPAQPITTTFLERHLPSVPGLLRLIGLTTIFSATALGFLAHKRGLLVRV
The data set can be described thus: Fluorescence assay with recombinant monoamine oxidase B. To be noted: 100 μM, 2 h at 37° C., Ex/Em 405/460 nm. The data set is classed as biochemical. As to the method:
as §1

Data set [5] deals with MAO A/MAO B in MCF-7 cells. The data set can be described thus: Confocal microscopy of MCF-7 cells treated with MAO probes. The arrangement: blue channel (405 nm) fluorescence of the probe / colocalization with MitoTracker Red (405 nm and 561 nm overlay): dose or concentration left out as unconfirmed. The data set is classed as cell-based. Here is the method:
Cell culture: MCF-7 and SY5Y cells were obtained from the Health Protection Agency (www.HPA.org.uk) or the American Type Culture Collection. […] Culture medium DMEM high glucose, F-12KTM, L-glutamine (200 mM), penicillin (10.000 U/mL), streptomycin (10 mg/mL), and trypan blue solution were purchased from Sigma, Invitrogen, ATCC or BioConcept. Trypsin-EDTA (0.05%/0.02%) in Ca2+- and Mg2+-deficient phosphate buffered saline (PBS) (1:250) was purchased from Amimed. PBS (pH 7.4) was purchased from Invitrogen. […] Cell culture flasks as well as serological pipettes were purchased from BD Biosciences and Sarstedt. Ethylenediaminetetraacetic acid (EDTA) was purchased from Sigma-Aldrich. Hoechst 33342 was purchased from Invitrogen. MitoTracker Red mitochondrial staining dye and live cell imaging solution were purchased from ThermoFisher.
Confocal Microscopy: Fluorescence images of cells were collected using a Nikon Eclipse T1 microscope equipped with a Yokogawa spinning-disk confocal scanner unit CSU-W1-T2, two sCMOS cameras (Orca Flash 4.0 V2) and a LUDL BioPrecision2 stage with piezo focus. Emission in the blue channel was filtered with a 450/50 bandpass filter, emission in the green channel was filtered with a 525/50 bandpass filter and emission in the far-red channel with a 700/75 bandpass filter. Fluorescence images were obtained using an oil-immersion objective with a magnification of 100×1.49 CFI Apo TIRF. The microscope was operated using VisiVIEW (Metamorph).
Prior to the measurement, cells were seeded at a density of 10′000 cells/well in ibidi 8-well plates and were grown for 1 day in DMEM (10% FCS) at 37° C. Afterwards cells were washed with PBS and fresh DMEM was added. Compounds were added to the cells as stock solutions in PBS to reach the final […] concentration. […] Cells were washed with PBS and the live cell imaging solution (200 μL) was added. The live cells were then immediately examined on a confocal microscope (Vistron Spinning Disk). For detection of the coumarin-activation a laser line 405 nm and for MitoTracker a laser line of 561 nm was used.

[6] abbreviates: 1 h pretreatment with Selegiline, then 10 mM probe 1 h.

Non-standard residues stand in square brackets, D forms with d. Residues, ends and D or L forms follow the SMILES beside them. *: point of attachment. X1 = Cc1c(CC(=O)*)c(=O)oc2c(F)c(OCCCN)c(F)cc12; X2 = Cc1c(CC(=O)*)c(=O)oc2c(F)c(O)c(F)cc12; dCha = N[C@H](CC1CCCCC1)C(=O)O; Ahx = NCCCCCC(=O)O

With 1-Ahx-[ProHypGly]7—NH2 [Compound 4], the “fluorescence in cross section of wound after in vivo administration” value (shortened to “fluorescence in cross section of wound”) in data set [1] is on record as “fluorescence can be clearly visualized at the locations where the peptide-bound probe has been unmasked”.
In the case of 1-Ahx-[ProProGly]7—NH2 [Compound 5], the “fluorescence in cross section of wound” value in data set [1] was “fluorescence can be clearly visualized at the locations where the peptide-bound probe has been unmasked”.
For “1-[ProHypGly]3-AopProGly-[ProHypGly]3—NH2 [Compound 3]”, the “fluorescence in cross section of wound” value in data set [1] is recorded as “fluorescence can be clearly visualized at the locations where the peptide-bound probe has been unmasked”. Moreover, the “localization of the probe in the wound” value in data set [1] (FIG. 31 (a) center) is “localizes the probe to collagen and elastin at the sites of LOX-mediated crosslinking”. The “blue fluorescence of the probe in tumor section” value with SSC13 ear tumor is “seen around the periphery of the tumor but is strongest near the side of attachment to the cartilage”.
As to “3-carboxy-6,8-difluoro-7-(4-((tert-butoxycarbonyl)amino)propoxy)-coumarin [Compound 1]”, in data set [2] (after 18 h incubation, UV detection at 254 nm), the “HPLC-MS trace of enzymatic conversion” value is given as “enzymatic conversion of Compound 1 to PB”.
As to “3-carboxy-6,8-difluoro-7-(4-((tert-butoxycarbonyl)amino)propoxy)-coumarin [Compound 2]”, in data set [3], the absorbance maximum is on record as 313 nm. The “fluorescent signal (RFU) with skin homogenate, comparison with oLOX probe” value in data set [2] was “significant increase in fluorescent signal”. Moreover, the “fluorescent signal (RFU) with heat-denatured skin homogenate” value in data set [2] (100 μM, 1 h at 37° C., homogenate denatured 1.5 h at 90° C., Ex/Em 405/460 nm) is on record as “significant decrease in fluorescent signal”. Besides, in data set [2] (100 μM, 1 h at 37° C., homogenate pretreated with 100 μM BAPN for 2 h, Ex/Em 405/460 nm), the “fluorescent signal (RFU) with BAPN-inhibited skin homogenate” value is “significant decrease in fluorescent signal”. In addition, the “fluorescent signal (RFU) with lung, skin and liver homogenates” value in data set [2] (100 μM, 18 h at 37° C., Ex/Em 405/460 nm) is “most significant increase in fluorescent signal was obtained for skin tissue type”. The “fluorescent signal (RFU) with MAO-B compared to controls” value in data set [4] is given as “significant increase in fluorescent signal”.
`Cc1c(CC(=O)NCCCCCC(=O)N[C@H](CC2CCCCC2)C(=O)N[C@H](CCCNC(=N)N)C(=O)N[C@H](CC2CCCCC2)C(=O)N[C@H](CCCNC(=N)N)C(=O)N[C@H](CC2CCCCC2)C(=O)N[C@H](CCCNC(=N)N)C(N)=O)c(=O)oc2c(F)c(O)c(F)cc12` [PB peptide, PB-Ahx-(ChaR)3—NH2, reference compound] ({X2-Ahx}-[dCha][dR][dCha][dR][dCha][dR]-NH2): in data set [5] (1 h), the “blue channel (405 nm) fluorescence of the probe” value is on record as “fluorescence of the probe”; the “colocalization with MitoTracker Red (405 nm and 561 nm overlay)” value is given as “lack colocalization”.
In the case of `Cl.Cl.NCCCOc1ccc2c(c1)Oc1cc(OCCCN)ccc1C21OC(=O)c2ccccc21` [oLOX, 3′,6′-Bis(3-aminopropoxy)-3H-spiro[2-benzofuran-1,9′-xanthen]-3-one dihydrochloride, reference compound], the “fluorescent signal (RFU) with skin homogenate, comparison with oLOX probe” value in data set [2] was “ns”.
As to `Cc1c(CC(=O)NCCCCCC(=O)N[C@H](CC2CCCCC2)C(=O)N[C@H](CCCNC(=N)N)C(=O)N[C@H](CC2CCCCC2)C(=O)N[C@H](CCCNC(=N)N)C(=O)N[C@H](CC2CCCCC2)C(=O)N[C@H](CCCNC(=N)N)C(N)=O)c(=O)oc2c(F)c(OCCCN)c(F)cc12` [peptide MAO probe, 1-Ahx-[Char]3—NH2] ({X1-Ahx}-[dCha][dR][dCha][dR][dCha][dR]-NH2), in data set [5] (setting [6]), the “blue channel (405 nm) fluorescence of the probe after MAO-B inhibitor” value is “very little fluorescence” and the “colocalization with MitoTracker Red after MAO-B inhibitor” value is “only poor colocalization”.
